Results from US4560693A, “[1,3]-Dioxolo[4,5-f]benzimidazoles and [1,4]-dioxino[2,3-f]benzimidazoles” (Byk Gulden Lomberg Chemische Fabrik GmbH, priority 1983, dated 1985).

How the values were obtained:
[1] = system: gastric lesion formation (rat stomach); assay: Antiulcerogenic action / protective effect on the stomach (modified Shay rat: pyloric ligature plus oral acetylsalicylic acid); type: in vivo; settings: rats, perorally, 1 h before pyloric ligature, 100 mg/kg acetylsalicylic acid orally, dose reducing lesion index by 50% vs control, 4 h, read-out: Protective effect on the stomach: Inhibition of the lesion index, ED50
Method: (§1) In these experiments, the compounds according to the invention were compared with prior art compounds (A-D) of UK Patent Application GB No. 2 082 580. The compounds investigated are numbered as follows:
(§2) The influence of the compounds according to the invention on gastric lesion formation induced by pyloric ligature (4 h; so-called Shay rat) and oral administration of 100 mg/kg of acetylsalicylic acid, and the gastric secretion (HCl) in the course of 4 h in rats is shown in the following table.
(§3) *ED25 und ED50 = dose which reduces the lesion index or the HCl secretion
(§4) (4h) in the rat stomach by 25 and, respectively, 50% in the treated group
(§5) in comparison with the control group.
The antiulcerogenic action was tested by the so-called Shay rat method:
(§6) Ulcers are caused in rats which have been fasted for 24 hours (female, 180-200 g, 4 animals per cage on a high grid) by pyloric ligature (under diethyl ether anesthesia) and oral administration of 100 mg/10 ml/kg of acetylsalicylic acid. The substances to be tested are administered orally (10 ml/kg) one hour before the pyloric ligature. The wound is closed by means of Michel clamps. 4 hours thereafter, the animals are sacrificed under ether anesthesia by Atlas dislocation and resection of the stomach. The stomach is opened longitudinally and attached to a cork plate, after the amount of gastric juice secreted (volume) and later its HCl content (titration with sodium hydroxide solution) have first been determined; the number and size (=diameter) of the ulcers present are determined under a stereomicroscope at 10-fold magnification. The product of the degree of severity (according to the following points scale) and number of ulcers serves as the individual lesion index.
Ulcer diameter 0.1-1.4 mm: 1
(§7) The reduction in the average lesion index of each treated group compared with the control group (=100%) serves as a measure of the antiulcerogenic effect.

gastric secretion (HCl) = assay: Inhibition of gastric secretion (HCl) in the Shay rat over 4 h; type: in vivo; settings: rats; for ED25 / ED50: Rattus norvegicus, po, perorally; for ED25: dose reducing HCl secretion (4 h) by 25% vs control; for ED50: dose reducing HCl secretion (4 h) by 50% vs control; for Gastric secretion: % inhibition of HCl secretion: after administration of the antiulcerous ED50, 4 h
Method: as §1, §2, §3, §4, §5
**after administration of the antiulcerous ED50.
as §6, §7

| Structure (SMILES) | ED50 [1] [mg/kg] | ED25 (gastric secretion (HCl)) [mg/kg] | ED50 (gastric secretion (HCl)) [mg/kg] | Gastric secretion: % inhibition of HCl secretion (gastric secretion (HCl)) [%] |
| --- | --- | --- | --- | --- |
| COc1ccnc(C[S+]([O-])c2nc3cc4c(cc3[nH]2)OC(F)(F)O4)c1 (stereo not drawn) [Serial No. 1, 2,2-Difluoro-6-[(4-methoxy-2-pyridyl)methylsulfinyl]-5H--[1,3]-dioxolo[4,5-f]benzimidazole] | 0.6 | 0.6 | 0.9 | 25 |
| COc1c(C)cnc(C[S+]([O-])c2nc3cc4c(cc3[nH]2)OC(F)C(F)(F)O4)c1C (stereo not drawn) [Serial No. 9, 6,6,7-trifluoro-6,7-dihydro-2-[(4-methoxy-3,5-dimethyl-2-pyridyl)methylsulfinyl]-1H-[1,4]-dioxino[2,3-f]benzimidazole] | 0.5 | 0.7 | 1 | 15 |
| COc1ccnc(C[S+]([O-])c2nc3cc4c(cc3[nH]2)OC(F)C(F)(F)O4)c1C (stereo not drawn) [Serial No. 5, 6,6,7-trifluoro-6,7-dihydro-2-[(4-methoxy-3-methyl-2-pyridyl)methylsulfinyl]-1H-[1,4]-dioxino[2,3-f]benzimidazole] | 0.35 | < 0.3 | 0.6 | 35 |
| COc1ccnc(CSc2nc3cc4c(cc3[nH]2)OCO4)c1 [Serial No. A, 6-[(4-Methoxy-2-pyridyl)methylthio]-5H--[1,3]-dioxolo-[4,5-f]benzimidazole, reference compound] | > 10 | > 10 | – | – |
| COc1cc(C[S+]([O-])c2nc3cc4c(cc3[nH]2)OC(F)(F)O4)ncc1C (stereo not drawn) [Serial No. 8, 2,2-difluoro-6-[(4-methoxy-5-methyl-2-pyridyl)methylsulfinyl]-5H-[1,3]-dioxolo[4,5-f]benzimidazole] | 0.5 | 1 | 2.5 | 17 |
| COc1ccnc(C[S+]([O-])c2nc3cc4c(cc3[nH]2)OC(F)(F)C(F)(Cl)O4)c1C (stereo not drawn) [Serial No. 10, 6-Chloro-6,7,7-trifluoro-6,7-dihydro-2-[(4-methoxy-3-methyl-2-pyridyl)methylsulfinyl]-1H-[1,4]-dioxino[2,3-f]benzimidazole] | 0.4 | 0.4 | 0.7 | 25 |
| COc1ccnc(C[S+]([O-])c2nc3cc4c(cc3[nH]2)OCO4)c1 (stereo not drawn) [Serial No. B, 6-[(4-Methoxy-2-pyridyl)methylsulffinyl]-5H--[1,3]-dioxolo-[4,5-f]benzimidazole, reference compound] | ~5 | – | – | – |
| COc1ccnc(C[S+]([O-])c2nc3cc4c(cc3[nH]2)OC(F)(F)O4)c1C (stereo not drawn) [Serial No. 2, 2,2-difluoro-6-[(4-methoxy-3-methyl-2-pyridyl)methylsulfinyl]-5H-[1,3]-dioxolo-[4,5-f]benzimidazole] | 0.4 | < 0.3 | 0.6 | 30 |
| COc1ccnc(CSc2nc3cc4c(cc3[nH]2)OC(F)(F)C(F)O4)c1 (stereo not drawn) [Serial No. 4, 6,6,7-Trifluoro-6,7-dihydro-2-[(4-methoxy-2-pyridyl)-methylthio]-1H--[1,4]-dioxino[2,3-f]benzimidazole] | 0.6 | 1 | 1.7 | 25 |
| COc1ccnc(CSc2nc3cc4c(cc3[nH]2)OC(F)(F)O4)c1C [Serial No. 7, 2,2-difluoro-6-[(4-methoxy-3-methyl-2-pyridyl)methylthio]-5H-[1,3]-dioxolo[4,5-f]benzimidazole] | 0.6 | 0.6 | > 1 | 25 |
| COc1ccnc(C[S+]([O-])c2nc3cc4c(cc3[nH]2)OCCO4)c1 (stereo not drawn) [Serial No. D, 6,7-Dihydro-2-[(4-methoxy-2-pyridyl)methylsulfinyl]-1H--[1,4]-dioxino[2,3-f]benzimidazole, reference compound] | 30 | > 30 | > 30 | 0 |
| COc1ccnc(CSc2nc3cc4c(cc3[nH]2)OCCO4)c1 [Serial No. C, 6,7-Dihydro-2-[(4-methoxy-2-pyridyl)methylthio]-1H--[1,4]-dioxino[2,3-f]benzimidazole, reference compound] | 30 | > 30 | > 30 | 19 |
| COc1ccnc(CSc2nc3cc4c(cc3[nH]2)OC(F)C(F)(F)O4)c1C (stereo not drawn) [Serial No. 6, 6,6,7-trifluoro-6,7-dihydro-2-[(4-methoxy-3-methyl-2-pyridyl)methylthio]-1H-[1,4]-dioxino[2,3-f]benzimidazole] | 0.6 | 0.7 | 1.4 | 20 |
| COc1ccnc(C[S+]([O-])c2nc3cc4c(cc3[nH]2)OC(F)C(F)(F)O4)c1 (stereo not drawn) [Serial No. 3, 6,6,7-Trifluoro-6,7-dihydro-2-[(4-methoxy-2-pyridyl)methylsulfinyl]-1H-[1,4]-dioxino[2,3-f]benzimidazole] | 0.45 | 0.5 | 1.4 | 23 |
